Read-outs that look alike come from different tables or passages of the source.
How the values were obtained:
[1] = test system: influenza A/Puerto Rico/8/34 H1N1 (PR8) virus; assay: microbe, parasite or virus in culture; format: cell-based; details: for IC50: Influenza A virus
[2] = test system: influenza A/Puerto Rico/8/34 H1N1 (PR8) virus; assay: microbe, parasite or virus in culture; format: cell-based; details: for IC50: Influenza A virus, 24 h, read-out: IC50 (concentration of compound causing 50% reduction of viral infection)
in vitro [3] = details: human
in vitro [4] = details: dog
[5] = test system: influenza A/Puerto Rico/8/34 H1N1 (PR8) virus; format: cell-based
[6] = A549, 24 h, read-out: IC50 (concentration of compound causing 50% reduction of viral infection)

SMILES | IC50 [1, 6] [µM] | IC50 [2] [µM] | CC50 at 24 h (in vitro [3]) [µM] | CC50 (in vitro [4]) [µM] | antiviral activity against influenza A virus (in words) [1] | CC50 (in vitro [3]) [µM] | SI (Selectivity Index, CC50/IC50) [2] | IC50 ([1]; A549, read-out: IC50 range against viral replication) [µg/mL] | foci of infection in cell monolayers [5]
COc1cc(Br)c(C[N+](C)([O-])CCc2ccc(O)cc2)cc1O (stereo not drawn) [Compound 9, N-(2-Bromo-5-Hydroxy-4-Methoxybenzyl)-2-(4-Hydroxyphenyl)-N-Methylethan-1-Amine Oxide] | 377 ± 11.4 | 86.8 ± 5.1 | 211 ± 8.1 | 206 ± 7.9 | – | – | – | – | –
COc1ccc(C[N+](C)([O-])CCc2ccc(O)cc2)cc1O (stereo not drawn) [Compound 12a, N-(3-Hydroxy-4-Methoxybenzyl)-2-(4-Hydroxyphenyl)-N-Methylethan-1-Amine Oxide] | 78.8 ± 4.3 | 137 ± 5.9 | 200 ± 7.1 | 137 ± 5.8 | – | – | – | – | –
C[N+]([O-])(CCc1ccc(O)cc1)Cc1cccc(O)c1 (stereo not drawn) [Compound 12b, N-(3-hydroxybenzyl)-2-(4-hydroxyphenyl)-N-methylethan-1-amine oxide] | 83.2 ± 5.1 | 138 ± 6.1 | 149 ± 6.2 | 129 ± 6 | – | – | – | – | –
C[N+]([O-])(CCc1ccc(O)cc1)Cc1ccc(O)cc1 (stereo not drawn) [Compound 12c, N-(4-Hydroxybenzyl)-2-(4-Hydroxyphenyl)-N-Methylethan-1-Amine Oxide] | 80.2 ± 4.9 | 84.7 ± 4.8 | 83.8 ± 5 | 114 ± 5.2 | – | – | – | – | –
C[N+]([O-])(CCc1ccc(O)cc1)Cc1ccc([N+](=O)[O-])c(O)c1 (stereo not drawn) [Compound 12d, N-(3-Hydroxy-4-Nitrobenzyl)-2-(4-Hydroxyphenyl)-N-Methylethan-1-Amine Oxide] | 1240 ± 30.2 | 70.2 ± 4 | – | 101 ± 4.9 | deprived the molecule of antiviral activity | 113 ± 6.1 | – | – | –
C[N+]([O-])(CCc1ccc(O)cc1)Cc1ccccc1 (stereo not drawn) [Compound 12e, N-Benzyl-2-(4-Hydroxyphenyl)-N-Methylethan-1-Amine Oxide] | – | 133 ± 5.8 | – | 109 ± 5.1 | – | – | 0.81 | – | –
C[N+]([O-])(CCCc1ccccc1)Cc1cccc(O)c1 (stereo not drawn) [Compound 12h, N-(3-Hydroxybenzyl)-N-Methyl-3-Phenylpropan-1-Amine Oxide] | 70.4 ± 3.1 | 73.2 ± 3.3 | – | 221 ± 8.9 | – | 287 ± 8.3 | – | 70 to 73 | reduction of foci of infection

Reference: PMC7866262, “Laccase-Catalyzed 1,4-Dioxane-Mediated Synthesis of Belladine N-Oxides with Anti-Influenza A Virus Activity” (International Journal of Molecular Sciences, 2021)
